Data from patent US20080146555A1, “Uses of Kinase Inhibitors and Compositions Thereof” (GPC Biotech, Inc, priority 2004, published 2008).
Where a name gives a salt, the structure may show the parent alone. Read-outs that look alike come from different tables or passages of the source.

Experiments:
[1] = target: T1, JNK1α1 (Homo sapiens, UniProt P45983); experiment: JNK1α1 kinase assay; format: biochemical
T1 construct: purchased Upstate 14-327
Method: • 1. 10× Reaction Buffer: 500 mM Tris-HCl pH 7.5, 1 mM EGTA, 1% 2-mercaptoethanol. • 2. Enzyme Dilution Buffer (EDB): 50 mM Tris-HCl pH 7.5, 0.1 mM EGTA, 0.1% 2-mercaptoethanol, 1 mg/ml BSA. • 3. JNK 11/SAPK1c, active: Dilute to 0.4-8 ng/μl with EDB. Use […] per assay point. • 4. ATF2 (amino acids 19-96) (Catalog #12-367): Prepare a 1.08 mg/ml stock. Use 2.5 μl per assay point for a final concentration of 3 μM per assay point. • 5. Magnesium/ATP Cocktail (Catalog #20-113): 75 mM MgCl2 and 500 μM ATP in 20 mM MOPS, pH 7.2, 25 mM β-glycerol phosphate, 5 mM EGTA, 1 mM sodium orthovanadate, 1 mM dithiothreitol. • 6. [γ-^32P]ATP: Stock 1 mCi/100 μl (3000 Ci/mmol, obtained from PerkinElmer, Cat. # BLU002A). Make 10 μl aliquots (100 μCi/vial). Before starting the assay, dilute an aliquot to 1 μCi/μl with 90 μl of Magnesium/ATP Cocktail diluted 1:2 with sterile, distilled water. […]
• 1. Add 2.5 μl of 10× Reaction Buffer per assay. • 2. Add 2.5 μl of ATF2 (amino acids 19-96). • 3. Add 2.5 μl (1-20 ng) JNK1α1/SAPK1c, active. • 4. Add 7.5 μl of sterile, distilled water. • 5. Add 10 μl of the diluted [γ-^32P]ATP mixture. • 6. Incubate for 10 minutes at 30° C. • 7. Transfer a 20 μl aliquot onto the center of a 2 cm×2 cm P81 paper. • 8. Wash the assay squares three times for 5 minutes with 0.75% phosphoric acid. • 9. Wash the assay squares once for 5 minutes with acetone. • 10. Transfer the assay squares to vial and add 5 ml scintillation cocktail. • 11. Read in scintillation counter. Compare cpm of enzyme samples to cpm of control samples that contain background control.

[2] = target: T2, Rsk3 (Homo sapiens, UniProt Q15349); experiment: Rsk3 kinase assay; format: biochemical
T2 construct: purchased Upstate 14-462
T2 sequence (Q15349 whole entry, species assumed): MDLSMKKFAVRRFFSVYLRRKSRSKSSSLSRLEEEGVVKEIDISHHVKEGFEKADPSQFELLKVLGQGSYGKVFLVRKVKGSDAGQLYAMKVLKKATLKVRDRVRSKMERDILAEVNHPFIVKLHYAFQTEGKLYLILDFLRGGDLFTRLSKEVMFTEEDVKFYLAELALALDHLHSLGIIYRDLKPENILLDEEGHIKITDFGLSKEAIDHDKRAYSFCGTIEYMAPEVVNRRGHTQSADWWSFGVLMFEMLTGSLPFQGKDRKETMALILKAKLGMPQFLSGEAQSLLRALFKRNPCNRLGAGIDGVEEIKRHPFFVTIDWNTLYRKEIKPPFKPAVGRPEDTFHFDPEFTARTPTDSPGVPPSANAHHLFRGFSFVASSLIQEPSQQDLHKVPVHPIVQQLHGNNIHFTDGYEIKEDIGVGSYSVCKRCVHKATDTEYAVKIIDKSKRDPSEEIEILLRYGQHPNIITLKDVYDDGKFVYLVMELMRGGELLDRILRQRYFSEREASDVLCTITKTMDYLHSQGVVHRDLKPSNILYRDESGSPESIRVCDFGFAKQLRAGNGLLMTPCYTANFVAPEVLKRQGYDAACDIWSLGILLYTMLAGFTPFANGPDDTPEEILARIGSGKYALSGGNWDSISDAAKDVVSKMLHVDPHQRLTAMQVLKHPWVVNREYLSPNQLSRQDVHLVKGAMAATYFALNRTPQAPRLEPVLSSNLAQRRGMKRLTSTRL
Method: • 1. 2.5× Reaction Buffer: 20 mM MOPS, pH 7.0, 1 mM EGTA. • 2. Enzyme Dilution Buffer (EDB): 20 mM MOPS, pH 7.0, 1 mM EDTA, 0.01% Brij-35, 5% glycerol, 0.1% β-mercaptoethanol, 1 mg/ml BSA. • 3. RSK3, active: Dilute to 4-40 ng/μl with EDB. Use 2.5 μl per assay point. • 4. MAPKAP Kinase 2 substrate peptide (Catalog #12-240): Prepare a 2.5 mM stock. Use 2.5 μl per assay point for a final concentration of 250 μM per assay. • 5. Magnesium/ATP Cocktail (Catalog #20-113): 75 mM MgCl2 and 500 μM ATP in 20 mM MOPS, pH 7.2, 25 mM β-glycerol phosphate, 5 mM EGTA, 1 mM sodium orthovanadate, 1 mM dithiothreitol. • 6. [γ-^32P]ATP: Stock 1 mCi/100 μl (3000 Ci/mmol, obtained from PerkinElmer, Catalog #BLU002A). Make 10 μl aliquots (100 μCi/vial). Before starting the assay, dilute the Magnesium/ATP Cocktail 1:1 with sterile, distilled water. Then dilute an aliquot of [γ-^32P]ATP to 1 μCi/μl with 90 μl of the diluted Magnesium/ATP Cocktail. […]
• 1. Add 10 μl of 2.5× Reaction Buffer per assay. • 2. Add 2.5 μl of MAPKAP Kinase 2 substrate peptide. • 3. Add 2.5 μl of RSK3, active (10-100 ng). • 4. Add 10 μl of the diluted [γ^32P]ATP mixture. • 5. Incubate for 10 minutes at 30° C. • 6. Transfer a 20 μl aliquot onto the center of a 2 cm×2 cm P81 paper. • 7. Wash the assay squares three times for 5 minutes with 0.75% phosphoric acid. • 8. Wash the assay squares once for 5 minutes with acetone. • 9. Transfer the assay squares to vial and add 5 ml scintillation cocktail. • 10. Read in scintillation counter. Compare cpm of enzyme samples to cpm of control samples that contain background control.

[3] = test system: 1A9-PTX10; experiment: SRB cytotoxicity, tubulin mutated paclitaxel-resistant cells; format: cell-based, human; settings: for IC50: Homo sapiens, 1A9/ptx-10, 72 h, SRB; for RR (relative resistance) 1A9-PTX10 vs 1A9: ratio of mean IC50 resistant/sensitive
Method: In these experiments, the P-glycoprotein expressing NCI-Adr resistant subline (Vickers et al., 1989. Mol Endocrinology 3 (1):157-164) was used. […] Briefly, cells were plated in 96 well dishes 24 hours prior to compound addition. Where noted, they were exposed to verapamil for 4 hours prior to compound addition and then throughout the treatment period (72 hours). The assay was terminated with the addition of cold TCA to a final concentration of 10% and the plates were incubated for one hour at 4° C. The plates were then washed 5 times with water and 100 μl of a Sulforhodamine B solution (4%) was added to each well. The plate was then incubated for 10 minutes at room temperature before removal of unbound dye by washing with 1% acetic acid.
The tubulin mutated, paclitaxel-resistant human ovarian carcinoma cell line 1A9-PTX10 and its parental paclitaxel-sensitive cell line 1A9 were derived from the A2780 human ovarian carcinoma cell line (J Biol Chem (1997) 272, 17118-17124).

[4] = test system: A2780; experiment: Calcein AM viability assay, A2780; format: cell-based; settings: Homo sapiens
Method: Analogous cell viability assays against other cell lines were conducted as above. […] Protocol for the Calcein AM viability assay.
HCT-116 or IMR90 cells were recovered from sub-confluent plates by trypsinization and 1,000 or 4,000 cells, respectively, were plated in 24-well dishes and incubated overnight at 37° C., 5% CO2. HCT-116 cells were cultured in RPMI-1640, 10% FCS, and IMR90 cells were cultured in Minimum Essential Medium-alpha, 10% FCS. After overnight incubation to allow adherence, the media was aspirated from each well and replaced with media containing a test compound at a concentration from 0 to 250 nM, spanning a total of 7 doses. The plates were returned to the incubator and cultured for an additional 72 hours (3 days). […] After 72-hours incubation with the test compound, the cells were washed twice with 1×PBS, taking special care to remove all residual buffer.
A 5 μM Calcein AM solution was prepared by dissolving a 50 μg aliquot of Calcein (Molecular Probes catalog #C3100) in 50 μl DMSO. After the Calcein had completely dissolved (10 minutes at room temperature), it was diluted into 10 ml PBS. Calcein/PBS (0.5 ml) was added to each well. The plates were incubated for 75 minutes at 37° C. (protected from light) and the fluorescent signal was read on a fluorescent plate reader (excitation 485/20 and emission 530/25).

[5] = kinase panel, 10 μM ATP, read-out: JNK1α1 IC50
[6] = read-out: MAPK8 Inhibition (IC50)
[7] = read-out: RPS6KA2 Inhibition (IC50)

T1 sequence (P45983 1-384 isoform P45983-2, species assumed): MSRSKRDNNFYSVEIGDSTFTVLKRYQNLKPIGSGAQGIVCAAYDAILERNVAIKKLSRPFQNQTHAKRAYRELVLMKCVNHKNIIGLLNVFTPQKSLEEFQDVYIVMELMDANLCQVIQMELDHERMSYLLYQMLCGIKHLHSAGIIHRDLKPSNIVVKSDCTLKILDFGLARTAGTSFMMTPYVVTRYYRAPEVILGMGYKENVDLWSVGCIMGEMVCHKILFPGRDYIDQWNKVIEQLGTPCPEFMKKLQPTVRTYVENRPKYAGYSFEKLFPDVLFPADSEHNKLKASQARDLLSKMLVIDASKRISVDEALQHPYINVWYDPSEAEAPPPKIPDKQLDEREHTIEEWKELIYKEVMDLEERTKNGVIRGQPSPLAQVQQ

CC(C)N1CCN(C(=O)COc2ccc(-c3n[nH]c4c3C(=O)c3c(NC(=O)NN5CCOCC5)cccc3-4)cc2)CC1 [Compound A37]
IC50 [1, 5]: 10 to 100 nM
IC50 [1, 6]: < 50 nM
IC50 ([2]; kinase panel, 10 μM ATP, read-out: Ribosomal protein S6 kinase 3 (Rsk3) IC50): 10 to 100 nM
IC50 [2, 7]: < 50 nM
IC50 [3]: 44.3 nM
RR (relative resistance) 1A9-PTX10 vs 1A9 [3]: 3.3
IC50 [4]: < 10 nM

COCCN1CCN(Cc2ccc(-c3n[nH]c4c3C(=O)c3c(NC(=O)NN5CCOCC5)cccc3-4)cc2)CC1 [Compound B16, N-[3-(4-{[4-(2-methoxyethyl)piperazinyl]methyl}phenyl)-4-oxoindeno[2,3-d]pyrazol-5-yl](morpholin-4-ylamino)carboxamide dihydrochloride]
IC50 [1, 5]: < 100 nM
IC50 [1, 6]: < 100 nM
IC50 [2, 7]: < 500 nM
IC50 [3]: 25 nM
RR (relative resistance) 1A9-PTX10 vs 1A9 [3]: 2.3
IC50 [4]: < 10 nM
